Structures are written as SMILES. pIC50: −log10 of the molar value.

The text below walks through data of patent US8507539B2, “Potassium channel blockers and uses thereof” (Bionomics Limited, priority 2008, dated 2013).

Sequence of hKv1.3 (P22001 whole entry): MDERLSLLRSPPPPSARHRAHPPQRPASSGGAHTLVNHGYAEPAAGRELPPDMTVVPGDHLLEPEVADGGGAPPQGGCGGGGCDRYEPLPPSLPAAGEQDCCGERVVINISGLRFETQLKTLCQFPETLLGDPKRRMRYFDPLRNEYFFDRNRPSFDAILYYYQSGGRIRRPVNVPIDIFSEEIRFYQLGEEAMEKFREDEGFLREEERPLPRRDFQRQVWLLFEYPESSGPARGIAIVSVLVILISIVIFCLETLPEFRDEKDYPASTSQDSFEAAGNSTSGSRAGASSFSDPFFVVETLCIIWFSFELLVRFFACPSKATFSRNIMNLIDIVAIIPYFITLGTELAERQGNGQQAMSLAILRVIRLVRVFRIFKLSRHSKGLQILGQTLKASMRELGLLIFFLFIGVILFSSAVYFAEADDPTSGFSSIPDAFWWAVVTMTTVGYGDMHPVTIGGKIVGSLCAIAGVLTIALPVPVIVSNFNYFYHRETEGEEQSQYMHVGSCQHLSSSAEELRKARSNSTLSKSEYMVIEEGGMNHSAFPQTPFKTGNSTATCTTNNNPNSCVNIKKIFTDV

The target of the assay is hKv1.3 (Homo sapiens, UniProt P22001). Kind of assay: Whole-cell patch-clamp block of Kv1.3 current in CHO cells stably expressing hKv1.3. The format is cell-based. As to conditions: CHO cells stably expressing hKv1.3, whole-cell patch clamp; reported as ranges; read-out: IC50 (Kv1.3). As for the experimental part:
The effectiveness of the generated compounds in blocking the Kv1.3 current was assayed on CHO cells stably expressing hKv1.3. Cells were grown in F12 Kaighns' medium supplemented with 10% fetal calf serum, 2 mM L-glutamine, 1 mM Na^+ pyruvate, 100 units/ml penicillin, 100 Fg/ml streptomycin and 500 μg/ml G418 (to keep them under selection pressure). Kv1.3 currents were measured using the whole-cell configuration of the patch-clamp technique and were evoked by 500 ms depolarising voltage pulses to +40 mV from a holding potential of −80 mV at 30 sec intervals. Cells were continuously bathed in Ringers solution containing (mM): 160 NaCl, 4.5 KCl, 2.5 CaCl2, 1 MgCl2, 10 HEPES, pH 7.4, 290-310 mOsm. The internal (pipette) solution contained (mM): 134 KF, 2 MgCl2, 10 HEPES, 10 EGTA (pH 7.2, 290-310 mOsm). Series resistance compensation (60-80%) was applied when the peak current amplitude exceeded 2 nA. Compounds initially dissolved in DMSO were diluted in bath solution (final DMSO concentration 0.5%) and applied directly to the recording chamber at increasing concentrations allowing ample time for steady state block to be achieved between each concentration. Each compound was tested at 4-5 different concentrations in triplicate. IC50 values were determined by fitting the average normalised reduction of the current integral to the Hill equation.
Regarding `CC(=O)c1c(OCCN2CCOCC2)c(OCCCc2ccccc2)c2ocnc2c1C` [Example 1i, 5-Acetyl-4-methyl-6-(2-morpholinoethoxy)-7-(3-phenylpropoxy)-benzo[d]oxazole], the negative logarithm of the IC50 (pIC50) was 6.70 to 7.30.

For `CC(=O)c1c(OCCN2CCOCC2)c(OCCC(C)c2ccc(F)cc2)c2ocnc2c1C` (centres unmarked) [Example 2d, 5-Acetyl-7-[3-(4-fluorophenyl)butoxy]-4-methyl-6-(2-morpholin-4-yl-ethoxy)benzooxazole], the pIC50 is > 7.30. Next, `CC(=O)c1c(OCCc2ccccn2)c(OCCC(C)c2ccc(F)cc2)c2ocnc2c1C` (centres unmarked) [Example 3, 5-Acetyl-7-[3-(4-fluorophenyl)butoxy]-4-methyl-6-(2-pyridin-2-yl-ethoxy)benzooxazole]: > 7.30. To `CC(=O)c1c(OCCN(C)C)c(OCCC(C)c2ccc(F)cc2)c2ocnc2c1C` (centres unmarked) [Example 4b, 5-Acetyl-7-[3-(4-fluorophenyl)butoxy]-4-methyl-6-(2-N,N-dimethylamino-ethoxy)benzooxazole] belongs 6.00 to 6.70.

On to `CC(=O)c1c(OCCn2ccnc2)c(OCCC(C)c2ccc(F)cc2)c2ocnc2c1C` (centres unmarked) [Example 5, 5-Acetyl-7-[3-(4-fluorophenyl)butoxy]-4-methyl-6-(2-N-imidazolyl-ethoxy)benzooxazole], for which the pIC50 is > 7.30. As for `CC(=O)c1c(OCCN2CCOCC2)c(OCCC(C)c2ccc(F)cc2)c2oc(C)nc2c1C` (centres unmarked) [Example 6c, 5-Acetyl-7-[3-(4-fluorophenyl)butoxy]-2,4-dimethyl-6-(2-morpholin-4-yl-ethoxy)-benzooxazole], the pIC50 is > 7.30. To `CC(=O)c1c(OCCN(C)C)c(OCCC(C)c2ccc(F)cc2)c2oc(C)nc2c1C` (centres unmarked) [Example 7, 5-Acetyl-6-(2-dimethylaminoethoxy)-7-[3-(4-fluorophenyl)butoxy]-2,4-dimethyl-benzooxazole] belongs 6.00 to 6.70; to `CC(=O)c1c(OCCc2ccccn2)c(OCCC(C)c2ccc(F)cc2)c2oc(C)nc2c1C` (centres unmarked) [Example 8, 5-Acetyl-7-[3-(4-fluorophenyl)butoxy]-2,4-dimethyl-6-(2-pyridin-2-yl-ethoxy)-benzooxazole], > 7.30; to `CC(=O)c1c(OCCc2cccc[n+]2[O-])c(OCCC(C)c2ccc(F)cc2)c2oc(C)nc2c1C` (centres unmarked) [Example 9, 2-(2-(5-acetyl-7-(3-(4-fluorophenyl)butoxy)-2,4-dimethylbenzo[d]oxazol-6-yloxy)ethyl)pyridine 1-oxide], 6.00 to 6.70. For the compound `CC(=O)c1c(OCCn2ccnc2)c(OCCC(C)c2ccc(F)cc2)c2oc(C)nc2c1C` (centres unmarked) [Example 10b, 5-Acetyl-7-[3-(4-fluorophenyl)butoxy]-6-(2-imidazol-1-yl-ethoxy)-2,4-dimethyl-benzooxazole], the pIC50 is 6.70 to 7.30. Consider `CC(=O)c1c(OCCn2nnc(N)n2)c(OCCC(C)c2ccc(F)cc2)c2oc(C)nc2c1C` (centres unmarked) [Example 11a, 5-Acetyl-6-[2-(5-aminotetrazol-2-yl)-ethoxy]-7-[3-(4-fluorophenyl)butoxy]-2,4-dimethyl-benzooxazole], for which the pIC50 was > 7.30. To `CC(=O)c1c(OCCn2nnnc2N)c(OCCC(C)c2ccc(F)cc2)c2oc(C)nc2c1C` (centres unmarked) [Example 11b, 5-Acetyl-6-[2-(5-amino-tetrazol-1-yl)-ethoxy]-7-[3-(4-fluorophenyl)butoxy]-2,4-dimethyl-benzooxazole] belongs 6.70 to 7.30; to `CC(=O)c1c(OCCN2CCC(=O)CC2)c(OCCC(C)c2ccc(F)cc2)c2oc(C)nc2c1C` (centres unmarked) [Example 12, 1-(2-{5-Acetyl-7-[3-(4-fluorophenyl)butoxy]-2,4-dimethyl-benzooxazol-6-yloxy}-ethyl)-piperidin-4-one], 6.70 to 7.30; to `CC(=O)c1c(OCCN2CC[S+]([O-])CC2)c(OCCC(C)c2ccc(F)cc2)c2oc(C)nc2c1C` (centres unmarked) [Example 14, 5-Acetyl-7-[3-(4-fluorophenyl)butoxy]-2,4-dimethyl-6-[2-(1-oxo-thiomorpholin-4-yl)-ethoxy]-benzooxazole], 6.70 to 7.30. To `CC(=O)c1c(OCCN2CCS(=O)(=O)CC2)c(OCCC(C)c2ccc(F)cc2)c2oc(C)nc2c1C` (centres unmarked) [Example 15, 5-Acetyl-6-[2-(1,1-dioxo-thiomorpholin-4-yl)-ethoxy]-7-[3-(4-fluorophenyl)butoxy]-2,4-dimethyl-benzooxazole] belongs > 7.30. On to `CC(=O)c1c(OCCn2ccnc2C)c(OCCC(C)c2ccc(F)cc2)c2oc(C)nc2c1C` (centres unmarked) [Example 16, 5-Acetyl-7-[3-(4-fluorophenyl)butoxy]-2,4-dimethyl-6-[2-(2-methylimidazol-1-yl)-ethoxy]-benzooxazole], for which the pIC50 is 6.70 to 7.30.

With `CC(=O)c1c(OCCN2CCC(C)(O)CC2)c(OCCC(C)c2ccc(F)cc2)c2oc(C)nc2c1C` (centres unmarked) [Example 19, 5-Acetyl-7-[3-(4-fluorophenyl)butoxy]-6-[2-(4-hydroxy-4-methyl-piperidin-1-yl)-ethoxy]-2,4-dimethyl-benzooxazole], the negative-log IC50 (pIC50) was 6.70 to 7.30. Next, `CCN(CC)CCOc1c(C(C)=O)c(C)c2nc(C)oc2c1OCCC(C)c1ccc(F)cc1` (centres unmarked) [Example 20, 5-Acetyl-6-(2-diethylamino-ethoxy)-7-[3-(4-fluorophenyl)butoxy]-2,4-dimethyl-benzooxazole]: 6.00 to 6.70.

For the compound `CC(=O)c1c(OCC[n+]2ccc(N)cc2)c(OCCC(C)c2ccc(F)cc2)c2oc(C)nc2c1C` (centres unmarked) [Example 21, 5-Acetyl-6-(2-(4-aminopyridin-1-ium)ethoxy)-7-[3-(4-fluorophenyl)butoxy]-2,4-dimethyl-benzo[d]oxazole chloride], the pIC50 is < 6.00.

As for `CC(=O)c1c(OCCN)c(OCCC(C)c2ccc(F)cc2)c2oc(C)nc2c1C` (centres unmarked) [Example 22, 5-Acetyl-6-(2-aminiumethoxy)-7-[3-(4-fluorophenyl)butoxy]-2,4-dimethyl-benzo[d]oxazole chloride], the pIC50 is 6.00 to 6.70. To `CC(=O)c1c(OCCN=C(N(C)C)N(C)C)c(OCCC(C)c2ccc(F)cc2)c2oc(C)nc2c1C` (centres unmarked) [Example 23, 5-Acetyl-6-(2-(N,N,N′,N′-tetramethylguanidinium)ethoxy)-7-[3-(4-fluorophenyl)butoxy]-2,4-dimethyl-benzo[d]oxazole chloride] belongs 6.00 to 6.70; to `CC(=O)c1c(OCCN2CCN(C)CC2)c(OCCC(C)c2ccc(F)cc2)c2oc(C)nc2c1C` (centres unmarked) [Example 25], 6.00 to 6.70; to `CC(=O)c1c(OCCNC(C)(C)C)c(OCCC(C)c2ccc(F)cc2)c2oc(C)nc2c1C` (centres unmarked) [Example 26, 5-Acetyl-6-(2-(N-tertbutylamino)ethoxy)-7-[3-(4-fluorophenyl)butoxy]-2,4-dimethyl-benzo[d]oxazole], 6.00 to 6.70. Next, `Cc1nc2c(C)c(C(C)O)c(OCCN3CCSCC3)c(OCCC(C)c3ccc(F)cc3)c2o1` (centres unmarked) [Example 27, 4-(1-Hydroxyethyl)-7-[3-(4-fluorophenyl)butoxy]-2,4-dimethyl-6-(2-thiomorpholin-4-ylethoxy)-benzo[d]oxazole]: > 7.30; `CC(=O)c1c(OCCN2CCOCC2)c(OCCC(C)c2ccc(F)cc2)c2oc(C(F)(F)F)nc2c1C` (centres unmarked) [Example 28c, 5-Acetyl-7-[3-(4-fluorophenyl)butoxy]-4-methyl-6-(2-morpholin-4-yl-ethoxy)-2-trifluoromethyl-benzooxazole]: 6.70 to 7.30; `CC(=O)c1c(OCCc2ccccn2)c(OCCC(C)c2ccc(F)cc2)c2oc(C(F)(F)F)nc2c1C` (centres unmarked) [Example 29, 5-Acetyl-7-[3-(4-fluorophenyl)butoxy]-4-methyl-6-(2-pyridin-2-yl-ethoxy)-2-trifluoromethyl-benzo[d]oxazole]: 6.70 to 7.30.

Regarding `CC(=O)c1c(OCCN2CCOCC2)c(OCCC(C)c2ccc(F)cc2)c2oc(C(F)F)nc2c1C` (centres unmarked) [Example 30c, 5-Acetyl-7-[3-(4-fluorophenyl)butoxy]-6-(2-morphin-4-yl-ethoxy)-4-methyl-2-difluoromethyl-benzo[d]oxazole], the pIC50 is 6.70 to 7.30. Consider `CC(=O)c1c(OCCN2CCOCC2)c(OCCC(C)c2ccc(F)cc2)c2oc(C(C)C)nc2c1C` (centres unmarked) [Example 32c, 5-Acetyl-7-[3-(4-fluorophenyl)butoxy]-2-isopropyl-4-methyl-6-(2-morpholin-4-O-ethoxy)-benzo[d]oxazole], for which the pIC50 is > 7.30. As for `CC(=O)c1c(OCCN2CCCC(F)(F)C2)c(OCCC(C)c2ccc(F)cc2)c2oc(C(C)C)nc2c1C` (centres unmarked) [Example 33b, 5-Acetyl-6-[2-(3,3-difluoropiperidin-1-yl)ethoxy]-7-[3-(4-fluorophenyl)butoxy]-2-isopropyl-4-methylbenzo[d]oxazole], the pIC50 was 6.70 to 7.30.

Take `CC(=O)c1c(OCCn2ccnc2C)c(OCCC(C)c2ccc(F)cc2)c2oc(C(C)C)nc2c1C` (centres unmarked) [Example 34, 5-Acetyl-7-[3-(4-fluorophenyl)butoxy]-2-isopropyl-1-4-methyl-6-[2-(2-methyl-1H-imidazol-1-yl)ethoxy]-benzo[d]oxazole]: the negative-log IC50 (pIC50) was 6.00 to 6.70. On to `CC(=O)c1c(OCCN2CCOCC2)c(OCCC(C)c2ccc(F)cc2)c2oc(C3CC3)nc2c1C` (centres unmarked) [Example 35d, 5-Acetyl-7-[3-(4-fluorophenyl)butoxy]-2-cyclopropyl-4-methyl-6-(2-morpholin-4-yl-ethoxy)-benzo[d]oxazole], for which the pIC50 was 6.70 to 7.30. To `CC(=O)c1c(OCCN2CCOCC2)c(OCCCc2ccccc2)c2oc(C)nc2c1Cl` [Example 37j] belongs 6.00 to 6.70.
